For the assay, the target named is T1, Recombinant human BRD4 containing dual bromodomains (BRD4-BD12 (1-477)) (Homo sapiens, UniProt O60885).
T1 construct: Recombinant human BRD4 containing dual bromodomains (BRD4-BD12 (1-477)); made in house; host or cells: E. coli BL21-CodonPlus (DE3), modified pET vector
Description: BRD4 Alphascreen binding assay. The essentials: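 His-tagged human BRD4 tandem bromodomains (1-477, E. coli) incubated 1 h at room temperature with biotinylated tetra-acetylated H4 (1-21) peptide and compound in HEPES pH 7.5 buffer with 2 mM DTT. AlphaScreen signal read 30 min after adding beads (7.5 μg/ml); IC50 from four-parameter fit after normalization to controls.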

From patent US11446287B2, “Compounds and methods for EP300 or CBP modulation and indications therefor” (Opna Immuno-Oncology SA, priority 2019, dated 2022) come the findings set out here.

For orientation: IC50 means the concentration that inhibits the measured activity by half.

As to `Cc1noc(C)c1-c1cnc2c(c1)c(-c1ccc(C(=O)O)cc1OCC(F)F)cn2-c1ccccc1` [P-0277, 3-(2,2-difluoroethoxy)-4-(5-(3,5-dimethylisoxazol-4-yl)-1-phenyl-1H-pyrrolo[2,3-b]pyridin-3-yl)benzoic acid], the IC50 lay in the range of 1 to 8 µM.

Regarding `Cc1noc(C)c1-c1cnc2c(c1)c(-c1ccc(C(=O)O)cc1OCC(F)(F)F)cn2-c1ccccc1` [P-0278, 4-(5-(3,5-dimethylisoxazol-4-yl)-1-phenyl-1H-pyrrolo[2,3-b]pyridin-3-yl)-3-(2,2,2-trifluoroethoxy)benzoic acid], the IC50 lay in the range of 1 to 8 µM.

In the case of `Cc1noc(C)c1-c1cnc2c(c1)c(-c1ccc(C(=O)O)cc1OC(F)(F)F)cn2-c1ccc(F)cc1` [P-0279, 4-(5-(3,5-dimethylisoxazol-4-yl)-1-(4-fluorophenyl)-1H-pyrrolo[2,3-b]pyridin-3-yl)-3-(trifluoromethoxy)benzoic acid], the IC50 is 1 to 8 µM.

`Cc1noc(C)c1-c1cnc2c(c1)c(-c1cnn(CC(=O)O)c1)cn2C(C1CC1)C1CC1` [P-0280, 2-(4-(1-(dicyclopropylmethyl)-5-(3,5-dimethylisoxazol-4-yl)-1H-pyrrolo[2,3-b]pyridin-3-yl)-1H-pyrazol-1-yl)acetic acid]: the IC50 was in the range of 8 to 1000 µM.

Turning to `Cc1noc(C)c1-c1cnc2c(c1)c(-c1ccc(C(=O)O)cc1OC(F)(F)F)cn2-c1cnc(N2CCC2)nc1` [P-0281, 4-(1-(2-(azetidin-1-yl)pyrimidin-5-yl)-5-(3,5-dimethylisoxazol-4-yl)-1H-pyrrolo[2,3-b]pyridin-3-yl)-3-(trifluoromethoxy)benzoic acid], the IC50 is 1 to 8 µM.

As to `Cc1noc(C)c1-c1cnc2c(c1)c(-c1ccc(C(=O)O)cc1OC(F)(F)F)cn2-c1ccc(S(C)(=O)=O)cc1` [P-0282, 4-(5-(3,5-dimethylisoxazol-4-yl)-1-(4-(methylsulfonyl)phenyl)-1H-pyrrolo[2,3-b]pyridin-3-yl)-3-(trifluoromethoxy)benzoic acid], the IC50 fell in the range of 0.0001 to 1 µM.

For `Cc1noc(C)c1-c1cnc2c(c1)c(-c1c(Cl)cc(C(=O)O)cc1OC(C)C)cn2C(C1CC1)C1CC1` [P-0283, 3-chloro-4-(1-(dicyclopropylmethyl)-5-(3,5-dimethylisoxazol-4-yl)-1H-pyrrolo[2,3-b]pyridin-3-yl)-5-isopropoxybenzoic acid], the IC50 fell in the range of 1 to 8 µM.

Take `Cc1noc(C)c1-c1cnc2c(c1)c(-c1cc(C(=O)O)ccc1OC(F)(F)F)cn2C(C1CC1)C1CC1` [P-0284, 3-(1-(dicyclopropylmethyl)-5-(3,5-dimethylisoxazol-4-yl)-1H-pyrrolo[2,3-b]pyridin-3-yl)-4-(trifluoromethoxy)benzoic acid]: the IC50 lay within 8 to 1000 µM.

For the compound `Cc1noc(C)c1-c1cnc2c(c1)c(-c1ccc(C(=O)O)cc1OC(F)(F)F)cn2[C@H]1CCOC1` [P-0285, (S)-4-(5-(3,5-dimethylisoxazol-4-yl)-1-(tetrahydrofuran-3-yl)-1H-pyrrolo[2,3-b]pyridin-3-yl)-3-(trifluoromethoxy)benzoic acid], the IC50 is 8 to 1000 µM.

Turning to `Cc1noc(C)c1-c1cnc2c(c1)c(-c1ccc(C(=O)O)cc1OC(F)(F)F)cn2[C@@H]1CCOC1` [P-0286, (R)-4-(5-(3,5-dimethylisoxazol-4-yl)-1-(tetrahydrofuran-3-yl)-1H-pyrrolo[2,3-b]pyridin-3-yl)-3-(trifluoromethoxy)benzoic acid], the IC50 lay within 8 to 1000 µM.

Regarding `CCn1cc(-n2cc(-c3ccc(C(=O)O)cc3OC(F)(F)F)c3cc(-c4c(C)noc4C)cnc32)c(C)n1` [P-0287, 4-(5-(3,5-dimethylisoxazol-4-yl)-1-(1-ethyl-3-methyl-1H-pyrazol-4-yl)-1H-pyrrolo[2,3-b]pyridin-3-yl)-3-(trifluoromethoxy)benzoic acid], the IC50 fell in the range of 1 to 8 µM.

On to `Cc1nn(C(F)F)cc1-n1cc(-c2ccc(C(=O)O)cc2OC(F)(F)F)c2cc(-c3c(C)noc3C)cnc21` [P-0288, 4-(1-(1-(difluoromethyl)-3-methyl-1H-pyrazol-4-yl)-5-(3,5-dimethylisoxazol-4-yl)-1H-pyrrolo[2,3-b]pyridin-3-yl)-3-(trifluoromethoxy)benzoic acid], for which the IC50 was 1 to 8 µM.

As for `Cc1noc(C)c1-c1cnc2c(c1)c(-c1ccc(C(=O)O)cc1OC(F)(F)F)cn2-c1cnn(C(F)F)c1C` [P-0289, 4-(1-(1-(difluoromethyl)-5-methyl-1H-pyrazol-4-yl)-5-(3,5-dimethylisoxazol-4-yl)-1H-pyrrolo[2,3-b]pyridin-3-yl)-3-(trifluoromethoxy)benzoic acid], the IC50 lay within 1 to 8 µM.

`Cc1noc(C)c1-c1cnc2c(c1)c(-c1ccc(C(=O)O)cc1OC(F)(F)F)cn2C1CCNCC1` [P-0290, 4-(5-(3,5-dimethylisoxazol-4-yl)-1-(piperidin-4-yl)-1H-pyrrolo[2,3-b]pyridin-3-yl)-3-(trifluoromethoxy)benzoic acid]: the IC50 lay in the range of 8 to 1000 µM.

Regarding `CC(=O)N1CCC(n2cc(-c3ccc(C(=O)O)cc3OC(F)(F)F)c3cc(-c4c(C)noc4C)cnc32)CC1` [P-0291, 4-(1-(1-acetylpiperidin-4-yl)-5-(3,5-dimethylisoxazol-4-yl)-1H-pyrrolo[2,3-b]pyridin-3-yl)-3-(trifluoromethoxy)benzoic acid], the IC50 is 8 to 1000 µM.

On to `Cc1noc(C)c1-c1cnc2c(c1)c(-c1ccc(C(=O)O)cc1OC(F)(F)F)cn2C1CCN(S(C)(=O)=O)CC1` [P-0292, 4-(5-(3,5-dimethylisoxazol-4-yl)-1-(1-(methylsulfonyl)piperidin-4-yl)-1H-pyrrolo[2,3-b]pyridin-3-yl)-3-(trifluoromethoxy)benzoic acid], for which the half-maximal inhibitory concentration (IC50) is 1 to 8 µM.

For `Cc1noc(C)c1-c1cnc2c(c1)c(-c1ccc(C(=O)O)cc1OC(F)(F)F)cn2-c1ccncc1F` [P-0293, 4-(5-(3,5-dimethylisoxazol-4-yl)-1-(3-fluoropyridin-4-yl)-1H-pyrrolo[2,3-b]pyridin-3-yl)-3-(trifluoromethoxy)benzoic acid], the IC50 fell in the range of 1 to 8 µM.

For `Cc1noc(C)c1-c1cnc2c(c1)c(-c1ccc(C(=O)O)cc1OC(F)(F)F)cn2-c1cnn(CC(C)(C)O)c1` [P-0294, 4-(5-(3,5-dimethylisoxazol-4-yl)-1-(1-(2-hydroxy-2-methylpropyl)-1H-pyrazol-4-yl)-1H-pyrrolo[2,3-b]pyridin-3-yl)-3-(trifluoromethoxy)benzoic acid], the IC50 lay within 0.0001 to 1 µM.

For the compound `CCOc1cc(C(=O)O)ncc1-c1cn(-c2ccc(F)cc2F)c2ncc(-c3c(C)noc3C)cc12` [P-0295, 5-(1-(2,4-difluorophenyl)-5-(3,5-dimethylisoxazol-4-yl)-1H-pyrrolo[2,3-b]pyridin-3-yl)-4-ethoxypicolinic acid], the IC50 was in the range of 1 to 8 µM.

In the case of `CCOc1c(F)c(C(=O)O)c(F)c(OCC)c1-c1cn(-c2ccc(F)cc2F)c2ncc(-c3c(C)noc3C)cc12` [P-0296, 4-(1-(2,4-difluorophenyl)-5-(3,5-dimethylisoxazol-4-yl)-1H-pyrrolo[2,3-b]pyridin-3-yl)-3,5-diethoxy-2,6-difluorobenzoic acid], the IC50 fell in the range of 8 to 1000 µM.

Regarding `CCOc1cc(C(=O)O)c(F)c(OCC)c1-c1cn(-c2ccc(F)cc2F)c2ncc(-c3c(C)noc3C)cc12` [P-0297, 4-(1-(2,4-difluorophenyl)-5-(3,5-dimethylisoxazol-4-yl)-1H-pyrrolo[2,3-b]pyridin-3-yl)-3,5-diethoxy-2-fluorobenzoic acid], the IC50 was 8 to 1000 µM.

For `Cc1noc(C)c1-c1cnc2c(-c3ccccc3)cn(-c3c(OCC(F)(F)F)cc(C(=O)O)cc3OCC(F)(F)F)c2c1` [P-0298, 4-(6-(3,5-dimethylisoxazol-4-yl)-3-phenyl-1H-pyrrolo[3,2-b]pyridin-1-yl)-3,5-bis(2,2,2-trifluoroethoxy)benzoic acid], the IC50 was 1 to 8 µM.

For the compound `Cc1noc(C)c1-c1cnc2c(c1)c(-c1ccc(C(=O)O)cc1OC(C)C)cn2-c1cnn(CC(C)(C)O)c1` [P-0299, 4-(5-(3,5-dimethylisoxazol-4-yl)-1-(1-(2-hydroxy-2-methylpropyl)-1H-pyrazol-4-yl)-1H-pyrrolo[2,3-b]pyridin-3-yl)-3-isopropoxybenzoic acid], the IC50 was in the range of 1 to 8 µM.

Consider `Cc1noc(C)c1-c1cnc2c(c1)c(-c1ccc(C(=O)O)cc1OC(C)C)cn2-c1cnc(N2CCC2)nc1` [P-0300, 4-(1-(2-(azetidin-1-yl)pyrimidin-5-yl)-5-(3,5-dimethylisoxazol-4-yl)-1H-pyrrolo[2,3-b]pyridin-3-yl)-3-isopropoxybenzoic acid], for which the IC50 is 8 to 1000 µM.

As to `Cc1noc(C)c1-c1cnc2c(c1)c(-c1ccc(C(=O)O)cc1OC(C)C)cn2[C@H]1CCOC1` [P-0301, (S)-4-(5-(3,5-dimethylisoxazol-4-yl)-1-(tetrahydrofuran-3-yl)-1H-pyrrolo[2,3-b]pyridin-3-yl)-3-isopropoxybenzoic acid], the half-inhibitory concentration (IC50) lay within 8 to 1000 µM.

Take `Cc1noc(C)c1-c1cnc2c(c1)c(-c1ccc(S(C)(=O)=O)cc1OC(C)C)cn2-c1ccccc1` [P-0302, 4-(3-(2-isopropoxy-4-(methylsulfonyl)phenyl)-1-phenyl-1H-pyrrolo[2,3-b]pyridin-5-yl)-3,5-dimethylisoxazole]: the IC50 fell in the range of 8 to 1000 µM.

Consider `CCCn1nc(C(=O)O)c(N)c1-c1cn(-c2ccc(F)cc2F)c2ncc(-c3c(C)noc3C)cc12` [P-0303, 4-amino-5-(1-(2,4-difluorophenyl)-5-(3,5-dimethylisoxazol-4-yl)-1H-pyrrolo[2,3-b]pyridin-3-yl)-1-propyl-1H-pyrazole-3-carboxylic acid], for which the IC50 lay within 8 to 1000 µM.

Turning to `CCCn1nc(C(=O)O)c(NCC)c1-c1cn(-c2ccc(F)cc2F)c2ncc(-c3c(C)noc3C)cc12` [P-0304, 5-(1-(2,4-difluorophenyl)-5-(3,5-dimethylisoxazol-4-yl)-1H-pyrrolo[2,3-b]pyridin-3-yl)-4-(ethylamino)-1-propyl-1H-pyrazole-3-carboxylic acid], the IC50 lay within 1 to 8 µM.
